Results as given in US6660494B2 (priority 2000, dated 2003).
“Also recorded” adds a separate entry of the source. Like-named read-outs stand apart in the source and are kept apart here.

Experiments:
[1] = stability on storage, in buffer solutions and in plating media; format: physicochemical; details: for stability in conventional buffer solutions: citrate/hydrochloric acid, Hepes/NaOH, Tris/HCl, boric acid/potassium chloride-sodium hydroxide, pH about 4 to about 10, ambient temperature; for stability in conventional plating media: e.g. Tryptic Soy Agar; for storage stability: temperatures below about 5° C., protected from light
solubility in water = format: physicochemical
[2] = molecular target: PC-PLC from Clostridium perfringens (Clostridium perfringens, UniProt P0C216); format: biochemical
PC-PLC from Clostridium perfringens, sequence (P0C216 29-398 limits assumed): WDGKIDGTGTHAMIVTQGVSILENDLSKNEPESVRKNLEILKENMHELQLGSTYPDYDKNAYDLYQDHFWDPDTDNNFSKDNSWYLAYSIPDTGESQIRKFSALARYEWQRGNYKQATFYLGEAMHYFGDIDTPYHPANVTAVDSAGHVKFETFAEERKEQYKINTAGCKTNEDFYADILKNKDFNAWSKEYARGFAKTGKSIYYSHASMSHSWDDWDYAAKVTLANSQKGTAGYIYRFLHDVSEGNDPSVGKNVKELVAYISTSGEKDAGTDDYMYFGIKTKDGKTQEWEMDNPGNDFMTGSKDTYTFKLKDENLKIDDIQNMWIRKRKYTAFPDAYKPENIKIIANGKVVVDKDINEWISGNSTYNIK

[3] = molecular target: PC-PLC of Clostridium perfringens (Clostridium perfringens, UniProt P0C216); format: biochemical
PC-PLC of Clostridium perfringens, sequence (P0C216 29-398 limits assumed): as above

C[N+](C)(C)CCOP(=O)([O-])Oc1c[nH]c2ccc(Br)c(Cl)c12 [X-CP, 5-bromo-4-chloro-3-indoxyl choline phosphate]
stability in conventional buffer solutions [1]: at least ten days
stability in conventional plating media [1]: stable
storage stability [1]: stable during extended periods of time
solubility in water (solubility in water): freely soluble in water
Vmax [2]: 93.6 nMol min^−1 (μg enzyme)^−1 and ≈ 94 μMol min^−1 (mg enzyme)^−1
Vmax (rate of cleavage under saturating conditions) [2]: 312 nmol/min
cleavage at 60° C. versus ambient temperature, times faster [2]: approximately 160
factor of increase of enzymatic activity for every 10° C. of rise in temperature [2]: 3-4
Rate ([2]; 22° C.): 0.65 nmol/min
Specific Activity ([2]; 22° C.): 0.1 µmol/min/mg
Rate ([2]; 41° C.): 8.1 nmol/min
Specific Activity ([2]; 41° C.): 1.2 µmol/min/mg
Rate ([2]; 46° C.): 19.7 nmol/min
Specific Activity ([2]; 46° C.): 3.0 µmol/min/mg
Rate ([2]; 51° C.): 25.8 nmol/min
Specific Activity ([2]; 51° C.): 3.9 µmol/min/mg
Rate ([2]; 55° C.): 48.5 nmol/min
Specific Activity ([2]; 55° C.): 7.3 µmol/min/mg
Rate ([2]; 60° C.): 106.8 nmol/min
Specific Activity ([2]; 60° C.): 16.0 µmol/min/mg
Km ([2]; read-out: Km (Michaelis-Menten constant)): ~42 mM
additional effect on cleavage rate when these detergents/surfactants are combined with BSA [3]: no additional enhancement
effect of detergent/surfactant additive on cleavage rate of the enzyme [3]: slight enhancement
color of the solution ([3]; pH 7): Bluish; also recorded: Colorless; also recorded: Pale blue; also recorded: Light blue; also recorded: Colorless*

C[N+](C)(C)CCOP(=O)([O-])Oc1c[nH]c2ccccc12 [Y-CP, 3-indoxylcholine phosphate]
stability in conventional buffer solutions [1]: at least ten days
stability in conventional plating media [1]: stable
storage stability [1]: stable during extended periods of time
solubility in water (solubility in water): freely soluble in water
